Results published in PMC11459956, “Onametostat, a PfPRMT5 inhibitor, exhibits antimalarial activity to Plasmodium falciparum” (Antimicrobial Agents and Chemotherapy, 2024).

Biological target: T1, PfPRMT5 (Plasmodium falciparum, UniProt Q8ID96)
T1 construct: gene PF3D7_1361000; protein A part cut by TEV, protein C tag kept; associated parasite proteins may co-purify
T1 sequence (Q8ID96 1-724): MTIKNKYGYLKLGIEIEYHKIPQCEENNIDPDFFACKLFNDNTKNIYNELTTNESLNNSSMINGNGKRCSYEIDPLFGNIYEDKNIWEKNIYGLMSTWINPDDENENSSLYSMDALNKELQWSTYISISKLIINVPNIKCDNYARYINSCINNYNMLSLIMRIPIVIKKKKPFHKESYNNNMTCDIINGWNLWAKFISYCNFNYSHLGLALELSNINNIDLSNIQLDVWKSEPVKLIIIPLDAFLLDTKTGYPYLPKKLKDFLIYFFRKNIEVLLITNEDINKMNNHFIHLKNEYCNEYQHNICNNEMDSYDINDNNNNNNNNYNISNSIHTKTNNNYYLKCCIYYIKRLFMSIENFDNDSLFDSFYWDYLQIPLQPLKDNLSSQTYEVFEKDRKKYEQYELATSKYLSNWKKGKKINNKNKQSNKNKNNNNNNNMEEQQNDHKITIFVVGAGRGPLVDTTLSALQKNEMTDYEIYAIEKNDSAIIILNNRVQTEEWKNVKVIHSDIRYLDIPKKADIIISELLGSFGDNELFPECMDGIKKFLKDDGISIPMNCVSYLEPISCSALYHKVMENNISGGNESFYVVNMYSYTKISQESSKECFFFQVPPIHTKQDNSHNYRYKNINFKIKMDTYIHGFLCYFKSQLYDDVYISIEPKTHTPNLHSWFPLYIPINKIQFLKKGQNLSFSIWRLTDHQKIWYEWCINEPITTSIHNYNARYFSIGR
Test: MTase-Glo luminescence methyltransferase assay
Type: biochemical
Conditions: 30 min pre-incubation at 37 °C, 115 µM PfPRMT5 as printed, 10 µM SAM, 0.1 µM human recombinant mononucleosomes, pH 8.0, 60 min

## Nc1nc2cc(CC[C@H]3C[C@@H](n4ccc5c(N)ncnc54)[C@H](O)[C@@H]3O)ccc2cc1Br [onametostat]
  % reduction of activity at 1:1 molar ratio PfPRMT5:onametostat: ~ 48%
